{"source": "patent US8557875B2", "about": "“Gene transfer agent composition containing polyamidoamine dendron” (Public University Corporation Osaka Prefecture University, priority 2009, dated 2013)", "key": {"K562": {"tested_on": "K562", "test": "Cytotoxic evaluation on gene transfer (Example 5)", "assay_type": "cell-based", "conditions": "compared with Lipofectamine LTX and FuGENE HD"}, "NHDF-ad cells [1]": {"tested_on": "NHDF-ad cells", "test": "Gene transfer (GFP expression, luciferase activity) versus commercial agents (Example 6)", "assay_type": "cell-based, human", "conditions": "single transfection, 48 hours", "experimental": "pEGFP-C1 expressing a green fluorescent protein was used as a gene transfer plasmid; and NHDF-ad cells, which were normal […] cells derived from adult humans and also used for the production of iPS cells, were used as target cells. Lipoplexes were individually prepared using DL-U2. Then, gene transfer was performed.\n(NHDF-ad cells: 2.5×10^4 cells/well·DMEM+10% FBS (Pe/St) 500 μl)\n(i) A 20 mM Tris-HCl (pH 7.4) buffer was dispensed into two tubes at, individually, 56.3 μl (for NP ratio=3) and 37.5 μl (for NP ratio=6).\n(ii) 1.0 μg of plasmid DNA (pCAG-GFP) was added to each of the two tubes prepared in step (i) at 2 μl (1.0 μg), and the contents were stirred. […]\n(vii) 48 hours later, luciferase activity was measured according to the protocol of the luciferase assay system (Promega, E1501).\nLipofectamine LTX: Gene transfer was performed according to the protocol, and luciferase activity was measured according to the protocol of the luciferase assay system (Promega, E1501).\nFuGENE HD: Gene transfer was performed according to the protocol, and luciferase activity was measured according to the protocol of the luciferase assay system (Promega, E1501).\nFuGENE6: Gene transfer was performed according to the protocol, and luciferase activity was measured according to the protocol of the luciferase assay system (Promega, E1501)."}, "NHDF-ad cells [2]": {"tested_on": "NHDF-ad cells", "test": "Toxicity evaluation after multiple gene transfer, WST-8 kit (Example 7)", "assay_type": "cell-based, human", "conditions": "transfer on Day 1, 3, 5, WST-8 on Day 7", "experimental": "(NHDF-ad cells: 3.5×10^3 cells/well·DMEM+10% FBS (Pe/St) 70 μl)\n(i) A 20 mM Tris-HCl (pH 7.4) buffer was dispensed into tubes at 35.5 μl (for NP ratio=6).\n(ii) 1.0 μg of plasmid DNA (pCAG-GFP) was added to each of the two tubes prepared in step (i) at 2 μl (1.0 μg), and the contents were stirred.\n(iii) To the prepared plasmid DNA solution was added 37.5 μl of a DL-U2 liposome solution (N/P ratio=6), and the whole was thoroughly mixed using a vortex and incubated at room temperature for 30 minutes.\n(iv) 25 μl of an Opti-MEM(R) I Reduced-Serum Medium was further added, and the whole was thoroughly mixed and allowed to stand at room temperature for 5 minutes.\n7 μl and 14 μl per well of the DL-plasmid DNA complex solutions was individually added to three wells, and the contents were mixed by shaking the plate so as to be homogeneous.\n(vi) The cells were incubated at 37° C. in 5% CO2 for 4 hours, and the growth medium was replaced.\nFor the cells subjected to gene transfer operations on Day 1, the same gene transfer was performed on Day 3 and Day 5, as well.\nDay 7 Toxicity evaluation was performed according to the protocol of a WST-8 kit (Kishida Chemical Co., Ltd.).\n(a well to which no lipoplex solution was added was defined as 100%) […]"}}}
{"compound": "CCCCCCCC/C=C\\CCCCCCCCN(CCCCCCCC/C=C\\CCCCCCCC)CCC(=O)NCCN(CCC(=O)NCCN)CCC(=O)NCCN", "note": "(racemic) [DL-G1-U2]", "values": [{"measurement": "cytotoxicity", "setting": "K562", "result": "lower cytotoxicity"}, {"measurement": "gene transfer (GFP gene) efficiency", "setting": "NHDF-ad cells [1]", "result": "allowed the gene to be transferred into the cells at a remarkably high frequency"}, {"measurement": "toxicity after multiple gene transfer", "setting": "NHDF-ad cells [2]", "result": "lowest toxicity"}]}
